Patent US20010047099A1, “4-aminopicolinates and their use as herbicides” (priority 2000, published 2001)
Like-named read-outs stand apart in the source and are kept apart here.

Key:
Format in all cases: in vivo
[1] = test system: barnyardgrass (Echinochloa crus-galli); assay: Preemergence herbicidal activity; conditions: pre-emergence, 504 h
Outline: (§1)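 Percent injury or lack of germination was judged by eye against untreated pots at 3 weeks, where 100 means complete kill. Before emergence, seeded 70:30 loam-sand soil received a surface spray of compound in water with 0.1% Tween 155 (acetone/DMSO carrier); greenhouse 15 h photoperiod, about 22-29° C.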

[2] = test system: giant foxtail (Setaria faberi); assay: Preemergence herbicidal activity; conditions: pre-emergence, 504 h
Outline: as §1

[3] = test system: lambsquarters (Chenopodium album); assay: Preemergence herbicidal activity; conditions: pre-emergence, 504 h
Outline: as §1

[4] = test system: crabgrass (Digitaria sanguinalis); assay: Preemergence herbicidal activity; conditions: pre-emergence, 504 h
Outline: as §1

[5] = test system: blackgrass (Alopecurus myosuroides); assay: Preemergence herbicidal activity; conditions: pre-emergence, 504 h
Outline: as §1

[6] = test system: wild oats (Avena fatua); assay: Preemergence herbicidal activity; conditions: pre-emergence, 504 h
Outline: as §1

[7] = test system: Rox orange sorghum (sorghum bicolor); assay: Preemergence herbicidal activity; conditions: pre-emergence, 504 h
Outline: as §1

[8] = test system: cocklebur (Xanthium strumarium); assay: Preemergence herbicidal activity; conditions: pre-emergence, 504 h
Outline: as §1

[9] = test system: wild poinsettia (Euphorbia heterophylla); assay: Preemergence herbicidal activity; conditions: pre-emergence, 504 h
Outline: as §1

[10] = test system: Canada thistle (Cirsium arvense); assay: Range & Pasture Crop Testing (postemergence track sprayer); conditions: for GR80 CIRAR: Table 10, clover pasture, postemergence
Outline: (§2)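 Postemergence track-sprayer application at 187 L/ha, compounds formulated in 97:3 acetone:DMSO with 0.25% X-77, five rates (X serially diluted to 1/16×). Visual percent control (0–100 scale, burn down) rated 3 weeks after treatment; GR50/GR80 derived by probit analysis.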

[11] = test system: field bindweed (Convolvulus arvensis); assay: as above; conditions: for GR80 CONAR: Table 10, clover pasture, postemergence
Outline: as §2

[12] = Table 7, rate 35 g/Ha, after 3 weeks, read-out: PREEMERGENCE HERBICIDAL ACTIVITY % CONTROL ECHCG
[13] = Table 7, rate 35 g/Ha, after 3 weeks, read-out: PREEMERGENCE HERBICIDAL ACTIVITY % CONTROL SETFA
[14] = Table 7, rate 35 g/Ha, after 3 weeks, read-out: PREEMERGENCE HERBICIDAL ACTIVITY % CONTROL CHEAL
[15] = Table 7, rate 35 g/Ha, after 3 weeks, read-out: PREEMERGENCE HERBICIDAL ACTIVITY % CONTROL DIGSA
[16] = Table 7, rate 35 g/Ha, after 3 weeks, read-out: PREEMERGENCE HERBICIDAL ACTIVITY % CONTROL ALOMY
[17] = Table 7, rate 35 g/Ha, after 3 weeks, read-out: PREEMERGENCE HERBICIDAL ACTIVITY % CONTROL AVEFA
[18] = Table 7, rate 35 g/Ha, after 3 weeks, read-out: PREEMERGENCE HERBICIDAL ACTIVITY % CONTROL SORBI
[19] = Table 7, rate 35 g/Ha, after 3 weeks, read-out: PREEMERGENCE HERBICIDAL ACTIVITY % CONTROL XANST
[20] = Table 7, rate 35 g/Ha, after 3 weeks, read-out: PREEMERGENCE HERBICIDAL ACTIVITY % CONTROL EPHHL

## COc1c(C(=O)O)nc(Br)c(Cl)c1N [Compound 42, 4-Amino-6-bromo-5-chloro-3-methoxypyridine-2-carboxylic acid]
[1]; [12]
  inhibition at 35 g/ha: 30%
[2]; [13]
  inhibition at 35 g/ha: 30%
[3]; [14]
  inhibition at 35 g/ha: 90%
[4]; [15]
  inhibition at 35 g/ha: 30%
[5]; [16]
  inhibition at 35 g/ha: 30%
[6]; [17]
  inhibition at 35 g/ha: 30%
[7]; [18]
  inhibition at 35 g/ha: 20%
[8]; [19]
  inhibition at 35 g/ha: 98%
[9]; [20]
  inhibition at 35 g/ha: 40%

## Nc1cc(Cl)nc(C(=O)O)c1Cl [Compound 1, 4-Amino-3,6-dichloropyridine-2-carboxylic acid]
[1]; read-out: PR[…] % CONTROL ECHCG, Table 7, rate 35 g/Ha, after 3 weeks
  inhibition at 35 g/ha: 17%
[2]; read-out: PR[…] % CONTROL SETFA, Table 7, rate 35 g/Ha, after 3 weeks
  inhibition at 35 g/ha: 40%
[3]; read-out: PR[…] % CONTROL CHEAL, Table 7, rate 35 g/Ha, after 3 weeks
  inhibition at 35 g/ha: 99%
[4]; read-out: PR[…] % CONTROL DIGSA, Table 7, rate 35 g/Ha, after 3 weeks
  inhibition at 35 g/ha: 20%
[5]; read-out: PR[…] % CONTROL ALOMY, Table 7, rate 35 g/Ha, after 3 weeks
  inhibition at 35 g/ha: 36%
[6]; read-out: PR[…] % CONTROL AVEFA, Table 7, rate 35 g/Ha, after 3 weeks
  inhibition at 35 g/ha: 37%
[7]; read-out: PR[…] % CONTROL SORBI, Table 7, rate 35 g/Ha, after 3 weeks
  inhibition at 35 g/ha: 60%
[8]; read-out: PR[…] % CONTROL XANST, Table 7, rate 35 g/Ha, after 3 weeks
  inhibition at 35 g/ha: 99%
[9]; read-out: PR[…] % CONTROL EPHHL, Table 7, rate 35 g/Ha, after 3 weeks
  inhibition at 35 g/ha: 62%
[10]; Table 8, salts of Compound 1, 3 week evaluation
  Post-emergent GR80 CIRAR: 47 g/Ha
[11]; Table 8, salts of Compound 1, dose for 80 percent control
  Post-emergent GR80 CONAR: 59 g/Ha

## CCOC(=O)c1nc(Cl)cc(N)c1Cl [Compound 4, ethyl 4-amino-3,6-dichloropyridine-2-carboxylate]
[10]
  GR80 CIRAR: <17.5 g/ha
[11]
  GR80 CONAR: 59 g/ha

## Nc1cc(Br)nc(C(=O)O)c1Cl [Compound 14, 4-Amino-6-bromo-3-chloropyridine-2-carboxylic acid]
[1]; [12]
  inhibition at 35 g/ha: 40%
[2]; [13]
  inhibition at 35 g/ha: 98%
[3]; [14]
  inhibition at 35 g/ha: 100%
[4]; [15]
  inhibition at 35 g/ha: 80%
[5]; [16]
  inhibition at 35 g/ha: 60%
[6]; [17]
  inhibition at 35 g/ha: 40%
[7]; [18]
  inhibition at 35 g/ha: 50%
[8]; [19]
  inhibition at 35 g/ha: 100%
[9]; [20]
  inhibition at 35 g/ha: 70%

## COC(=O)c1nc(Cl)cc(N)c1Cl [Compound 3, methyl 4-amino-3,6-dichloropyridine-2-carboxylate]
[1]; [12]
  inhibition at 35 g/ha: 20%
[2]; [13]
  inhibition at 35 g/ha: 40%
[3]; [14]
  inhibition at 35 g/ha: 100%
[4]; [15]
  inhibition at 35 g/ha: 40%
[6]; [17]
  inhibition at 35 g/ha: 10%
[7]; [18]
  inhibition at 35 g/ha: 30%
[8]; [19]
  inhibition at 35 g/ha: 90%
[9]; [20]
  inhibition at 35 g/ha: 20%
[10]; Table 9, rate 70 g/Ha, 3 weeks after treatment
  Post-emergent Evaluation - % control CIRAR: 90%
[10]
  GR80 CIRAR: <17.5 g/ha
[11]
  GR80 CONAR: 127.7 g/ha
